Assay results reported in the kinase profiling compilation of Christmann-Franck et al. (2016).

Assays:
Test in all cases: KINOMEscan competition binding
Details in all cases: compound 10.0 µM
[1] = biological target: CDC2L2 (human) (UniProt Q9UQ88)
[2] = biological target: CDK9 (human) (UniProt P50750)
[3] = biological target: AURKA (human) (UniProt O14965)
[4] = biological target: RIOK1 (human) (UniProt Q9BRS2)
[5] = biological target: GSK3A (human) (UniProt P49840)
[6] = biological target: TYRO3 (human) (UniProt Q06418)
[7] = biological target: DYRK1B (human) (UniProt Q9Y463)
[8] = biological target: MAP2K3 (human) (UniProt P46734)
[9] = biological target: LATS1 (human) (UniProt O95835)
[10] = test system: KIT (human), P10721 [V559D/V654A]
[11] = biological target: WEE2 (human) (UniProt P0C1S8)
[12] = biological target: PRKCD (human) (UniProt Q05655)
[13] = biological target: DDR1 (human) (UniProt Q08345)
[14] = biological target: MAPK15 (human) (UniProt Q8TD08)
[15] = biological target: CHEK2 (human) (UniProt O96017)
[16] = biological target: CLK4 (human) (UniProt Q9HAZ1)
[17] = biological target: FGR (human) (UniProt P09769)
[18] = biological target: MAP3K13 (human) (UniProt O43283)
[19] = biological target: MAK (human) (UniProt P20794)
[20] = biological target: ICK (human) (UniProt Q9UPZ9)
[21] = biological target: NEK2 (human) (UniProt P51955)
[22] = biological target: PLK3 (human) (UniProt Q9H4B4)
[23] = biological target: OXSR1 (human) (UniProt O95747)
[24] = biological target: EPHA8 (human) (UniProt P29322)
[25] = biological target: CAMK2B (human) (UniProt Q13554)
[26] = biological target: DSTYK (human) (UniProt Q6XUX3)
[27] = biological target: PIP5K1A (human) (UniProt Q99755)
[28] = biological target: PLK2 (human) (UniProt Q9NYY3)
[29] = biological target: TGFBR1 (human) (UniProt P36897)
[30] = biological target: RAF1 (human) (UniProt P04049)
[31] = biological target: LTK (human) (UniProt P29376)
[32] = biological target: MERTK (human) (UniProt Q12866)
[33] = biological target: MAPK11 (human) (UniProt Q15759)
[34] = biological target: TNNI3K (human) (UniProt Q59H18)
[35] = biological target: SIK2 (human) (UniProt Q9H0K1)
[36] = biological target: IRAK4 (human) (UniProt Q9NWZ3)
[37] = biological target: PDGFRB (human) (UniProt P09619)
[38] = biological target: ACVR2A (human) (UniProt P27037)
[39] = biological target: FGFR2 (human) (UniProt P21802)
[40] = biological target: PIK3CA (human) (UniProt P42336)

Chain of MAPK15 (human) (Q8TD08 whole entry, looked up): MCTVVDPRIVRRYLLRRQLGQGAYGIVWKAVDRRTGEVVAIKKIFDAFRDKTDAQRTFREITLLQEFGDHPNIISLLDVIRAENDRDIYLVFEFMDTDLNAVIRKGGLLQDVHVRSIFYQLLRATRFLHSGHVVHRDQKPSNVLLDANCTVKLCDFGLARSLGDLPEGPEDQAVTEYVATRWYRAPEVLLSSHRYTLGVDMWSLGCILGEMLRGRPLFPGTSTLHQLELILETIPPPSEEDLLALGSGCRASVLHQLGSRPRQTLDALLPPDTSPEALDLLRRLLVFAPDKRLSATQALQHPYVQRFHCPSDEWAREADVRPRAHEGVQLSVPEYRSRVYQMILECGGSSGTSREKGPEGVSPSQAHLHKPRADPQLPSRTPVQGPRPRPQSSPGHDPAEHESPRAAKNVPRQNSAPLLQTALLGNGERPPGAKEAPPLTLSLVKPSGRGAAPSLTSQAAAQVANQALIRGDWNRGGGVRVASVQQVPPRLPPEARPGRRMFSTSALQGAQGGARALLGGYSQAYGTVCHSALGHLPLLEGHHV
Chain of ICK (human) (Q9UPZ9 whole entry, looked up): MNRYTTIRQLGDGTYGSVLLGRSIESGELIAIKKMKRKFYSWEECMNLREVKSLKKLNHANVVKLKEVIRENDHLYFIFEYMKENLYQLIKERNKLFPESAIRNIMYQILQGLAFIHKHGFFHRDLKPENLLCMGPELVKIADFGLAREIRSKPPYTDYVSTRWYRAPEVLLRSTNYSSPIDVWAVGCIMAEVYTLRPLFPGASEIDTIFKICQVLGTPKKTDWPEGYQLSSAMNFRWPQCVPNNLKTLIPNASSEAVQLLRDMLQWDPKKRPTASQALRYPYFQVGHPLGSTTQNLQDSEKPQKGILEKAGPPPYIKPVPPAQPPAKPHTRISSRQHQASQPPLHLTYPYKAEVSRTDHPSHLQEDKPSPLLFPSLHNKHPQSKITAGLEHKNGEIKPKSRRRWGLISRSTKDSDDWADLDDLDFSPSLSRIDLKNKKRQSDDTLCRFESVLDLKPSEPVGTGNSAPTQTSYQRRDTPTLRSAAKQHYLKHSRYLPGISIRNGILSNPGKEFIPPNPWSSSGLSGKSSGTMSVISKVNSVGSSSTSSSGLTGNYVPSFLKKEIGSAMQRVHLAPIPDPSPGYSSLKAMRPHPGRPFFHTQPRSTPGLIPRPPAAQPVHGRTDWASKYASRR
Chain of CLK4 (human) (Q9HAZ1 whole entry, looked up): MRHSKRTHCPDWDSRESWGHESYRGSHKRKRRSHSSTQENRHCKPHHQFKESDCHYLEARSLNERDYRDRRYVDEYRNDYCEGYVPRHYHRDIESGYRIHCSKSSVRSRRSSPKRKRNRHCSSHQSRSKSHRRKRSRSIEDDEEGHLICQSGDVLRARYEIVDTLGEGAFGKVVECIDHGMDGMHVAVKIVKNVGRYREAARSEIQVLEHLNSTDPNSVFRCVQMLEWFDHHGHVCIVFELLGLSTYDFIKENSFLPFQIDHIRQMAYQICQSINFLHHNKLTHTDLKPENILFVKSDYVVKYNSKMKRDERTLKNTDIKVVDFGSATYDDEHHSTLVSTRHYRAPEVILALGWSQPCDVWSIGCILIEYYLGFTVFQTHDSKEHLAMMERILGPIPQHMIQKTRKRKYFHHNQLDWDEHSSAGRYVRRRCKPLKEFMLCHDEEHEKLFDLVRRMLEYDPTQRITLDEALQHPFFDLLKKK
Chain of NEK2 (human) (P51955 whole entry, looked up): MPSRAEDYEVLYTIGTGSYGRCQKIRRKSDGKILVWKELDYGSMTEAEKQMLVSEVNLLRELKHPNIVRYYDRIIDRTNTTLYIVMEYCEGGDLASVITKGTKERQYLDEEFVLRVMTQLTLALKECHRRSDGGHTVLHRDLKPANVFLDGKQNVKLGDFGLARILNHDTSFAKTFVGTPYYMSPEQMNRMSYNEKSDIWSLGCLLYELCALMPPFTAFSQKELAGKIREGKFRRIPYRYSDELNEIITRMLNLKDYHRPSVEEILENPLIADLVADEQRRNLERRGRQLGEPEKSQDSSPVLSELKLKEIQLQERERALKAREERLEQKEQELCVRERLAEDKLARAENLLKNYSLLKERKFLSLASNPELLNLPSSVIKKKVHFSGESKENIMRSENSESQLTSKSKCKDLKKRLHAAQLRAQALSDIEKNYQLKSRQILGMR
Chain of CHEK2 (human) (O96017 whole entry, looked up): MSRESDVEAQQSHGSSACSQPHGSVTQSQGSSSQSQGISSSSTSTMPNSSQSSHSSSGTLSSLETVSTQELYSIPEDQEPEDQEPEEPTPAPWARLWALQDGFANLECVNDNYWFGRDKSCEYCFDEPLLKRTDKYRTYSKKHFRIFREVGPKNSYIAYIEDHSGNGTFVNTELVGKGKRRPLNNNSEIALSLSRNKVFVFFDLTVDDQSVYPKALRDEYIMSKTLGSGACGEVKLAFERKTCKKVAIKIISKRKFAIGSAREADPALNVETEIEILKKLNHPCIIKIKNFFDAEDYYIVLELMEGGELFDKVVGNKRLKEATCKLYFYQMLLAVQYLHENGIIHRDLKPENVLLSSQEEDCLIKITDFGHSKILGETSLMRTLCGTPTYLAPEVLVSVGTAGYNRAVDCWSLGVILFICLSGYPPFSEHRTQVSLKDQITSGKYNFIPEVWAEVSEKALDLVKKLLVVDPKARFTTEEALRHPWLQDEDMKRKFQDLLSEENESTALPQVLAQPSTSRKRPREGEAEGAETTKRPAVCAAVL
Chain of RAF1 (human) (P04049 whole entry, looked up): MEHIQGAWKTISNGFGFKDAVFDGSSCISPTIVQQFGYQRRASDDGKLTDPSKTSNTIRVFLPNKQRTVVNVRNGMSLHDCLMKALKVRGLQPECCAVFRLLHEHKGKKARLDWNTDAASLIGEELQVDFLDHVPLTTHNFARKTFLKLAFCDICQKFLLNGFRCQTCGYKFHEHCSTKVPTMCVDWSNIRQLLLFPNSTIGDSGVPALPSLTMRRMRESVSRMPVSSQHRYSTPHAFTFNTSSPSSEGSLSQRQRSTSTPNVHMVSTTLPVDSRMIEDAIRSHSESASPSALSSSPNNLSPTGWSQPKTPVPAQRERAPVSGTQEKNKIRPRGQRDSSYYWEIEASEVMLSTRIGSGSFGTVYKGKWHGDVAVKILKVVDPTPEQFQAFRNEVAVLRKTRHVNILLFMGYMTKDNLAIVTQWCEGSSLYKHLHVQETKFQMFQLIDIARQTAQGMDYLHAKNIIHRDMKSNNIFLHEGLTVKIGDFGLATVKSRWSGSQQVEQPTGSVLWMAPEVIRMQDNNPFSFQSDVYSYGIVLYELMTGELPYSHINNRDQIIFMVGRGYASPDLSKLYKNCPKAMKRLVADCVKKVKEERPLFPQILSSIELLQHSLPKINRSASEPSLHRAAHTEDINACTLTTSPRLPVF
Chain of WEE2 (human) (P0C1S8 whole entry, looked up): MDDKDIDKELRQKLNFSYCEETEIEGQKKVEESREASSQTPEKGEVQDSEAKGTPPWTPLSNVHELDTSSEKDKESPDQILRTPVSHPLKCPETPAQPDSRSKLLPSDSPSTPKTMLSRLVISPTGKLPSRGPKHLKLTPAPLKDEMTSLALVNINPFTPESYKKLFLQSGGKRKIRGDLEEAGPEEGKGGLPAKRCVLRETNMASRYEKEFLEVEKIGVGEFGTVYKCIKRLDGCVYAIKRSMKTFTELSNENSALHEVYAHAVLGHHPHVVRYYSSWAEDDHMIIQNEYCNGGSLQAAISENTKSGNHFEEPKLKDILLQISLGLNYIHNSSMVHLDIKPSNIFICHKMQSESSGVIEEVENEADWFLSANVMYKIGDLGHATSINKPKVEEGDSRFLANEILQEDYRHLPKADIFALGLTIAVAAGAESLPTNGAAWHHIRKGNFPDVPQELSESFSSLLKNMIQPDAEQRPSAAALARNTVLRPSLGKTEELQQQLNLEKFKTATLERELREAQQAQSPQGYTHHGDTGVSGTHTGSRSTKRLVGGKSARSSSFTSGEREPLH
Chain of CDC2L2 (human) (Q9UQ88 whole entry, looked up): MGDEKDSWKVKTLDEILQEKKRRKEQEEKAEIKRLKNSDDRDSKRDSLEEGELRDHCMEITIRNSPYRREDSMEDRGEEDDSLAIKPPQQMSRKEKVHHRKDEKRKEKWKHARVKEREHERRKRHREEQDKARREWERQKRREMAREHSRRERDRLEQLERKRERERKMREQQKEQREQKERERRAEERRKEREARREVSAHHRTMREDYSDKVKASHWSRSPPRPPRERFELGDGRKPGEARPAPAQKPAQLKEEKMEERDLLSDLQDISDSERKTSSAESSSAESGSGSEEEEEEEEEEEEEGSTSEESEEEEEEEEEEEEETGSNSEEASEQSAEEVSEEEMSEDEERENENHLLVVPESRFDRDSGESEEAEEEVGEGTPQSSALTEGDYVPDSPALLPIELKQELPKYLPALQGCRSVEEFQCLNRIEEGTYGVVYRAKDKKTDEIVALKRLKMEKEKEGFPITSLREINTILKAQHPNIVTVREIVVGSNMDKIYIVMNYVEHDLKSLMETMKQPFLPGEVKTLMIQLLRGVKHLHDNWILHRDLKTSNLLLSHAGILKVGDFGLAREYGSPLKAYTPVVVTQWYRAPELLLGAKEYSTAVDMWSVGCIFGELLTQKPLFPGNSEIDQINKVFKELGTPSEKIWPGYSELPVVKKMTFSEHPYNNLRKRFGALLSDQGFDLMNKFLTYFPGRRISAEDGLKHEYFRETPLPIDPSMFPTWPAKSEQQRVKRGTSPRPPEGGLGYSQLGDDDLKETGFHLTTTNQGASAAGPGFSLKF
Chain of MAP2K3 (human) (P46734 whole entry, looked up): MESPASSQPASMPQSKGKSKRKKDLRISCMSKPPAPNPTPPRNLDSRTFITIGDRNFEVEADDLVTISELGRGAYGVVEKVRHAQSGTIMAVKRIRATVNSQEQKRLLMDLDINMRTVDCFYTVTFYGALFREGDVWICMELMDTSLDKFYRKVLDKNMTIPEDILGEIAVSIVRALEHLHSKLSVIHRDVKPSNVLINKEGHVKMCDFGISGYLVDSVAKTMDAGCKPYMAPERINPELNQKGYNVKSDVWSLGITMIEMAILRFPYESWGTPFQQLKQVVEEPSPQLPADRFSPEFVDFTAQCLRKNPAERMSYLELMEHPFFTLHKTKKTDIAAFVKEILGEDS

| Structure (SMILES) | kinase still bound, per cent of control [1] [%] | kinase still bound, per cent of control [2] [%] | kinase still bound, per cent of control [3] [%] | kinase still bound, per cent of control [4] [%] | kinase still bound, per cent of control [5] [%] | kinase still bound, per cent of control [6] [%] | kinase still bound, per cent of control [7] [%] | kinase still bound, per cent of control [8] [%] | kinase still bound, per cent of control [9] [%] | kinase still bound, per cent of control [11] [%] | kinase still bound, per cent of control [12] [%] | kinase still bound, per cent of control [13] [%] | kinase still bound, per cent of control [14] [%] | kinase still bound, per cent of control [15] [%] | kinase still bound, per cent of control [16] [%] | kinase still bound, per cent of control [17] [%] | kinase still bound, per cent of control [18] [%] | kinase still bound, per cent of control [19] [%] | kinase still bound, per cent of control [20] [%] | kinase still bound, per cent of control [21] [%] | other results |
| --- | --- | --- | --- | --- | --- | --- | --- | --- | --- | --- | --- | --- | --- | --- | --- | --- | --- | --- | --- | --- | --- |
| COc1cc2ncn(-c3cc(OCc4ccccc4C(F)(F)F)c(C(N)=O)s3)c2cc1OC | 99 | 100 | 100 | 4.1 | 100 | 72 | 87 | 78 | 100 | 100 | 100 | 100 | 46 | 100 | 45 | 63 | 100 | 100 | 100 | 14 | kinase still bound, per cent of control [10]: 100%; kinase still bound, per cent of control [22]: 0%; kinase still bound, per cent of control [23]: 100%; kinase still bound, per cent of control [24]: 74%; kinase still bound, per cent of control [25]: 75%; kinase still bound, per cent of control [26]: 88%; kinase still bound, per cent of control [27]: 3.4%; kinase still bound, per cent of control [28]: 0.2%; kinase still bound, per cent of control [29]: 86%; kinase still bound, per cent of control [30]: 87%; kinase still bound, per cent of control [31]: 100%; kinase still bound, per cent of control [32]: 7%; kinase still bound, per cent of control [33]: 88%; kinase still bound, per cent of control [34]: 81%; kinase still bound, per cent of control [35]: 26%; kinase still bound, per cent of control [36]: 58%; kinase still bound, per cent of control [37]: 5.3%; kinase still bound, per cent of control [38]: 79% |
| N#CCNC(=O)c1ccc(-c2ccnc(Nc3ccc(N4CCOCC4)cc3)n2)cc1 | 58 | 55 | 12 | 1 | 100 | 100 | 90 | 53 | 100 | 100 | 54 | 100 | 0.25 | 100 | 15 | 92 | 77 | 100 | 100 | 77 | kinase still bound, per cent of control [10]: 100%; kinase still bound, per cent of control [39]: 58%; kinase still bound, per cent of control [22]: 11%; kinase still bound, per cent of control [23]: 58%; kinase still bound, per cent of control [24]: 83%; kinase still bound, per cent of control [25]: 14%; kinase still bound, per cent of control [26]: 38%; kinase still bound, per cent of control [27]: 39%; kinase still bound, per cent of control [28]: 51%; kinase still bound, per cent of control [29]: 76%; kinase still bound, per cent of control [30]: 100%; kinase still bound, per cent of control [31]: 100%; kinase still bound, per cent of control [32]: 100%; kinase still bound, per cent of control [33]: 100%; kinase still bound, per cent of control [34]: 100%; kinase still bound, per cent of control [35]: 14%; kinase still bound, per cent of control [36]: 64%; kinase still bound, per cent of control [37]: 2.2%; kinase still bound, per cent of control [38]: 75% |
| NC(=O)Nc1cc(-c2cccc(F)c2)sc1C(=O)N[C@@H]1CCCNC1 | 100 | 88 | 22 | 0.4 | 100 | 3.2 | 1.8 | 10 | 11 | 91 | 0.65 | 10 | 19 | 3.8 | 2.4 | 0.2 | 7 | 100 | 100 | 75 | kinase still bound, per cent of control [39]: 11%; kinase still bound, per cent of control [22]: 39%; kinase still bound, per cent of control [23]: 0.45%; kinase still bound, per cent of control [24]: 0.4%; kinase still bound, per cent of control [25]: 19%; kinase still bound, per cent of control [26]: 1.3%; kinase still bound, per cent of control [27]: 0%; kinase still bound, per cent of control [28]: 40%; kinase still bound, per cent of control [29]: 47%; kinase still bound, per cent of control [30]: 100%; kinase still bound, per cent of control [31]: 0.3%; kinase still bound, per cent of control [32]: 0.05%; kinase still bound, per cent of control [33]: 77%; kinase still bound, per cent of control [40]: 100%; kinase still bound, per cent of control [34]: 7.3%; kinase still bound, per cent of control [35]: 2.6%; kinase still bound, per cent of control [36]: 0%; kinase still bound, per cent of control [37]: 0%; kinase still bound, per cent of control [38]: 2.2% |
| CNC(=O)c1cc(Oc2ccc(NC(=O)Nc3ccc(Cl)c(C(F)(F)F)c3)cc2)ccn1 | 85 | 81 | 80 | 100 | 67 | 80 | 92 | 97 | 79 | 87 | 100 | 0 | 0.85 | 100 | 52 | 53 | 100 | 41 | 92 | 100 | kinase still bound, per cent of control [39]: 14%; kinase still bound, per cent of control [23]: 100%; kinase still bound, per cent of control [24]: 3.9%; kinase still bound, per cent of control [25]: 84%; kinase still bound, per cent of control [26]: 100%; kinase still bound, per cent of control [27]: 100%; kinase still bound, per cent of control [28]: 71%; kinase still bound, per cent of control [29]: 100%; kinase still bound, per cent of control [30]: 0.05%; kinase still bound, per cent of control [31]: 88%; kinase still bound, per cent of control [33]: 0.2%; kinase still bound, per cent of control [34]: 19%; kinase still bound, per cent of control [35]: 97%; kinase still bound, per cent of control [36]: 95%; kinase still bound, per cent of control [37]: 0%; kinase still bound, per cent of control [38]: 100% |
